Laboratory results: patent US11332455B2, “α,β-unsaturated amide compound” (KYOWA KIRIN CO., LTD., priority 2015, dated 2022)

What follows are molecules tested on NCI-H226 cells, a human mesothelioma cell line (assay: Cell growth inhibitory effect, cell counting kit 8, 6 days). Details: 144 h, 6 days incubation, group 100 nmol/L to 1 μmol/L (upper bound given in μmol/L).
Assay type: cell-based
From the text: Cell growth inhibitory effect on human mesothelioma, human liver cancer, human ovarian cancer, and […]
NCI-H226 cells, a human mesothelioma cell line (ATCC, CRL-5826), NCI-H322 cells, a human lung cancer cell line (the European Collection of Authenticated Cell Cultures, 95111734), OVTOKO cells, a human ovarian cancer cell line (JCRB cell bank, JCRB1048) and HuH28, a human liver cancer cell line (JCRB cell bank, JCRB0426) were each subcultured by keeping the cell density under 80% in a RPMI1640 culture medium with 10% fetal bovine serum (FBS). NCI-H226 cells, NCI-H322 cells and SSP-25 cells were each suspended in the RPM11640 culture medium mentioned above, and plated to a 96-well flat-bottom plate at 500 cells/well in each well, and incubated at 37° C. in an incubator with 5% CO2 for one day. After the incubation, the evaluation of cell growth inhibitory activity was started. OVTOKO cells were suspended in the RPMI1640 culture medium mentioned above, and plated to a 96-well flat-bottom plate at 250 cells/well in each well, and incubated it at 37° C. in an incubator with 5% CO2 for one day. After the incubation, the evaluation of the cell growth inhibitory activity was started. The next day, a test compound was serially diluted to 5 times of its final concentration in the RPM11640 culture medium mentioned above, and the diluted solution was added to each well. In this case, the final concentration of DMSO in each well was adjusted to 0.1%. After the test compound was added, cells were incubated at 37° C. in an incubator with 5% CO2 for 6 days. At the addition of the test compound and 6 days after the addition, the cell counting measurement was performed using a cell counting kit 8 (made by DOJINDO) according to a protocol equivalent to DOJINDO's recommendation. A reagent contained in the kit was added to each plate and color reaction was performed for 2 or 3 hours at 37° C. in an incubator with 5% CO2. After the reaction, an absorbance at wavelength of 450 nm was measured using a microplate reader. A growth inhibition rate was calculated according to the following formula, from which the concentration of a test compound at which cell growth was inhibited by 50% (GI50 value) was determined.
Molecule `C=CC(=O)Nc1cc(Oc2ccc(Cl)cc2)cnc1C` [Compound 93, N-{5-(4-Chlorophenoxy)-2-methylpyridin-3-yl}acrylamide] has a GI50 of 100 to 1000 nM. `C=CC(=O)N[C@H]1CC[C@@H](Oc2ccc(C(F)(F)F)cc2)c2nc(CC)ccc21` (relative stereo) [Compound 186, cis-N-[2-ethyl-8-{4-(trifluoromethyl)phenoxy}-5,6,7,8-tetrahydroquinolin-5-yl]acrylamide] gave a GI50 of 100 to 1000 nM. Work on `C=CC(=O)NC1CCOc2c1ccc(OCc1ccccc1)c2F` (stereo not drawn) [Compound 166, N-{7-(Benzyloxy)-8-fluorochroman-4-yl}acrylamide] yielded a GI50 of 100 to 1000 nM. Molecule `C=CC(=O)Nc1ccc(OC2CCC(F)(F)CC2)c2ncccc12` [Compound 120, N-[8-{(4,4-Difluorocyclohexyl)oxy}quinolin-5-yl]acrylamide] has a GI50 of 100 to 1000 nM. `C=CC(=O)N[C@H]1CC[C@@H](Oc2ccccc2)c2ncccc21` (relative stereo) [Compound 67, cis-N-(8-Phenoxy-5,6,7,8-tetrahydroquinolin-5-yl)acrylamide] gave a GI50 of 100 to 1000 nM. Work on `C=CC(=O)NC1COc2c(cccc2Oc2ccc(C(F)(F)F)nn2)C1` (stereo not drawn) [Compound 156, N-(8-[{6-(trifluoromethyl)pyridazin-3-yl}oxy]chroman-3-yl)acrylamide] yielded a GI50 of 100 to 1000 nM. Molecule `C=CC(=O)NC1CCOc2cc(OCc3ccccc3)ccc21` (stereo not drawn) [Compound 14, N-{7-(Benzyloxy)chroman-4-yl}acrylamide] has a GI50 of 100 to 1000 nM. Work on `C=CC(=O)NCC1CCOc2cc(Oc3ccc(Cl)cc3)ccc21` (stereo not drawn) [Compound 26, N-[{7-(4-Chlorophenoxy)chroman-4-yl}methyl]acrylamide] yielded a GI50 of 100 to 1000 nM. In the case of `C=CC(=O)NC1COc2c(cccc2Oc2ccc(Cl)nc2)C1` (stereo not drawn) [Compound 49, N-[8-{(6-Chloropyridin-3-yl)oxy}chroman-3-yl]acrylamide], the GI50 is reported as 100 to 1000 nM. `C=CC(=O)N[C@H]1CC[C@@H](Oc2cnc(Cl)c(Cl)c2)c2nc(Cl)ccc21` (relative stereo) [Compound 181, cis-N-[2-Chloro-8-{(5,6-dichloropyridin-3-yl)oxy}-5,6,7,8-tetrahydroquinolin-5-yl]acrylamide] gave a GI50 of 100 to 1000 nM. Molecule `C=CC(=O)NCc1ccc(Oc2ccc(C3CC3)cc2)c2ncccc12` [Compound 136, N-[{8-(4-Cyclopropylphenoxy)quinolin-5-yl}methyl]acrylamide] has a GI50 of 100 to 1000 nM. For `C=CC(=O)Nc1cncc(Oc2ccc(OCC)cc2)c1` [Compound 102, N-{5-(4-Ethoxyphenoxy)pyridin-3-yl}acrylamide], the GI50 was 100 to 1000 nM. `C=CC(=O)Nc1cncc(Oc2ccc(OC(C)C)cc2)c1` [Compound 103, N-{5-(4-Isopropoxyphenoxy)pyridin-3-yl}acrylamide] was tested, and the GI50 was 100 to 1000 nM. In the case of `C=CC(=O)NC1CCOc2cc(OCC3CCCCC3)ccc21` (stereo not drawn) [Compound 16, N-{7-(Cyclohexylmethoxy)chroman-4-yl}acrylamide], the GI50 is reported as 100 to 1000 nM. For `C=CC(=O)NC1CCOc2ccc(Oc3ccc(Cl)cc3)cc21` (stereo not drawn) [Compound 24, N-{6-(4-Chlorophenoxy)chroman-4-yl}acrylamide], the GI50 was 100 to 1000 nM. In the case of `C=CC(=O)Nc1cncc(Oc2cccc(OCC)c2)c1` [Compound 101, N-{5-(3-Ethoxyphenoxy)pyridin-3-yl}acrylamide], the GI50 is reported as 100 to 1000 nM. In the case of `O=C(/C=C/C(F)(F)F)NCc1cc(Oc2ccc(C(F)(F)F)cc2)nc2ccccc12` [Compound 147, (E)-4,4,4-Trifluoro-N-([2-{4-(trifluoromethyl)phenoxy}quinolin-4-yl]methyl)-2-butenamide], the GI50 is reported as 100 to 1000 nM. Work on `C=CC(=O)NC1CCOc2cc(Oc3ccc(Cl)cc3)c(C)cc21` (stereo not drawn) [Compound 23, N-{7-(4-Chlorophenoxy)-6-methylchroman-4-yl}acrylamide] yielded a GI50 of 100 to 1000 nM. `Cc1c(Oc2ccc(C(F)(F)F)cc2)ccc2c1OCCC2NC(=O)/C=C/C(F)(F)F` (stereo not drawn) [Compound 29, (E)-4,4,4-Trifluoro-N-[8-methyl-7-{4-(trifluoromethyl)phenoxy}chroman-4-yl]-2-butenamide] was tested, and the GI50 was 100 to 1000 nM. Work on `C=CC(=O)NC1CCOc2c1ccc(Oc1ccc(C(F)(F)F)nc1)c2OCC` (stereo not drawn) [Compound 172, N-(8-Ethoxy-7-[{6-(trifluoromethyl)pyridin-3-yl}oxy]chroman-4-yl)acrylamide] yielded a GI50 of 100 to 1000 nM. For `C=CC(=O)Nc1ccc(OCc2ccccc2)c2ncccc12` [Compound 123, N-{8-(Benzyloxy)quinolin-5-yl}acrylamide], the GI50 was 100 to 1000 nM. For `C=CC(=O)Nc1cncc(Oc2ccc(Cl)c(Cl)c2)c1` [Compound 105, N-{5-(3,4-Dichlorophenoxy)pyridin-3-yl}acrylamide], the GI50 was 100 to 1000 nM. `C=CC(=O)N[C@H]1CC[C@H](Oc2ccc(Cl)cc2)c2nc(OC)ccc21` (relative stereo) [Compound 81, trans-N-{8-(4-Chlorophenoxy)-2-methoxy-5,6,7,8-tetrahydroquinolin-5-yl}acrylamide] gave a GI50 of 100 to 1000 nM. In the case of `C=CC(=O)Nc1ccc(Oc2ccc(Cl)cc2)c2ncccc12` [Compound 116, N-{8-(4-Chlorophenoxy)quinolin-5-yl}acrylamide], the GI50 is reported as 100 to 1000 nM. `C=CC(=O)NCc1cc(Oc2ccc(Cl)cc2)nc2ccccc12` [Compound 144, N-[{2-(4-Chlorophenoxy)quinolin-4-yl}methyl]acrylamide] gave a GI50 of 100 to 1000 nM.

Same assay, conditions: 144 h, 6 days incubation, group less than 100 nmol/L
`C=CC(=O)NC1COc2c(cccc2Oc2cnc(Cl)c(C)c2)C1` (stereo not drawn) [Compound 56, N-[8-{(6-Chloro-5-methylpyridin-3-yl)oxy}chroman-3-yl]acrylamide] showed a GI50 of under 100 nM. For `C=CC(=O)NC1CCOc2cc(Oc3ccccc3)ccc21` (stereo not drawn) [Compound 1, N-(7-phenoxychroman-4-yl)acrylamide], the GI50 was under 100 nM. `C=CC(=O)N[C@H]1C[C@@H](C)Oc2cc(Oc3ccc(C(F)(F)F)cc3)ccc21` (relative stereo) [Compound 19, cis-N-[2-Methyl-7-{4-(trifluoromethyl)phenoxy}chroman-4-yl]acrylamide] was tested, and the GI50 was under 100 nM. Work on `C=CC(=O)N[C@H]1C[C@H](C)Oc2cc(Oc3ccc(C(F)(F)F)cc3)ccc21` (relative stereo) [Compound 20, trans-N-[2-Methyl-7-{4-(trifluoromethyl)phenoxy}chroman-4-yl]acrylamide] yielded a GI50 of under 100 nM. `C=CC(=O)Nc1cncc(Oc2ccc(OC(F)(F)F)cc2)c1` [Compound 100, N-[5-{4-(Trifluoromethoxy)phenoxy}pyridin-3-yl]acrylamide] gave a GI50 of under 100 nM. In the case of `C=CC(=O)NC1COc2c(cc(Br)cc2Oc2ccc(C(F)(F)F)nc2)C1` (stereo not drawn) [Compound 231, N-(6-Bromo-8-[{6-(trifluoromethyl)pyridin-3-yl}oxy]chroman-3-yl)acrylamide], the GI50 is reported as under 100 nM. For `C=CC(=O)NC1COc2c(Oc3ccc(Cl)cc3)cccc2C1=O` (stereo not drawn) [Compound 39, N-{8-(4-Chlorophenoxy)-4-oxochroman-3-yl}acrylamide], the GI50 was under 100 nM. `C=CC(=O)NC1COc2cccc(Oc3ccc(Cl)cc3)c2C1` (stereo not drawn) [Compound 34, N-{5-(4-Chlorophenoxy)chroman-3-yl}acrylamide] gave a GI50 of under 100 nM. In the case of `C=CC(=O)NCc1ccc(Oc2cccc(Cl)c2)c2ncccc12` [Compound 133, N-[{8-(3-chlorophenoxy)quinolin-5-yl}methyl]acrylamide], the GI50 is reported as under 100 nM. For `C=CC(=O)NC1CCOc2cc(Oc3ccc(Cl)cc3)ccc21` (stereo not drawn) [Compound 3, N-{7-(4-Chlorophenoxy)chroman-4-yl}acrylamide], the GI50 was under 100 nM. With `C=CC(=O)NC1CCOc2c1ccc(Oc1ccc(F)cc1)c2F` (stereo not drawn) [Compound 167, N-{8-Fluoro-7-(4-fluorophenoxy)chroman-4-yl}acrylamide] the GI50 was under 100 nM. Molecule `C=CC(=O)NC1CCOc2c1ccc(Oc1ccc(Cl)cc1)c2F` (stereo not drawn) [Compound 30, N-{7-(4-Chlorophenoxy)-8-fluorochroman-4-yl}acrylamide] has a GI50 of under 100 nM. `C=CC(=O)NC1CCOc2cc(Oc3ccc(C(F)(F)F)c(Cl)n3)ccc21` (stereo not drawn) [Compound 11, N-(7-[{6-Chloro-5-(trifluoromethyl)pyridin-2-yl}oxy]chroman-4-yl)acrylamide] was tested, and the GI50 was under 100 nM. For `C=CC(=O)NC1CCOc2c1ccc(Oc1ccc(C(F)(F)F)cc1)c2OC` (stereo not drawn) [Compound 237, N-[8-Methoxy-7-{4-(trifluoromethyl)phenoxy}chroman-4-yl]acrylamide], the GI50 was under 100 nM. In the case of `C=CC(=O)NC1CCOc2c1ccc(Oc1ccc(C(F)(F)F)cc1)c2F` (stereo not drawn) [Compound 239, N-[8-Fluoro-7-{4-(trifluoromethyl)phenoxy}chroman-4-yl]acrylamide], the GI50 is reported as under 100 nM. Work on `C=CC(=O)NC1COc2c(cccc2Oc2ccc(C(F)(F)F)cn2)C1` (stereo not drawn) [Compound 50, N-(8-[{5-(Trifluoromethyl)pyridin-2-yl}oxy]chroman-3-yl)acrylamide] yielded a GI50 of under 100 nM. For `C=CC(=O)NC1COc2c(cccc2Oc2ccc(C(F)(F)F)cc2)C1` (stereo not drawn) [Compound 44, N-[8-{4-(Trifluoromethyl)phenoxy}chroman-3-yl]acrylamide], the GI50 was under 100 nM.
